Measurements as given in ChEMBL document CHEMBL1201862, “PubChem BioAssay data set” (2004).
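Values below derive from 48-hour exposures of cells grown in 96-well plates, with endpoints linearly interpolated between the two concentrations bracketing the appropriate inhibition level. Here, GI50 denotes the concentration required for 50% inhibition of growth.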 The source made the active and inactive calls. Cut-off read from the data, not from the text of the source: active = GI50 up to about 1.1 µM and inactive = higher.

Columns and labels:
Assay in all cases: inhibition of tumour cell growth, NCI panel, 48 h
OVCAR-5 = tested on: OVCAR-5
EKVX = tested on: EKVX
MOLT-4 = tested on: MOLT-4
SK-MEL-2 = tested on: SK-MEL-2
HOP-62 = tested on: HOP-62
UACC-257 = tested on: UACC-257
SK-MEL-5 = tested on: SK-MEL-5
SNB-75 = tested on: SNB-75
HCT-15 = tested on: HCT-15
HCT-116 = tested on: HCT-116
SF-268 = tested on: SF-268
NCI-H460 = tested on: NCI-H460
U-251 = tested on: U-251
TK-10 = tested on: TK-10
K562 = tested on: K562
OVCAR-3 = tested on: OVCAR-3
SNB-19 = tested on: SNB-19
SK-OV-3 = tested on: SK-OV-3
NCI/ADR-RES = tested on: NCI/ADR-RES
MCF7 = tested on: MCF7

Row | Structure (SMILES) | GI50 (OVCAR-5) | GI50 (EKVX) | GI50 (MOLT-4) | GI50 (SK-MEL-2) | GI50 (HOP-62) | GI50 (UACC-257) | GI50 (SK-MEL-5) | GI50 (SNB-75) | GI50 (HCT-15) [µM] | GI50 (HCT-116) | GI50 (SF-268) | GI50 (NCI-H460) | GI50 (U-251) | GI50 (TK-10) | GI50 (K562) | GI50 (OVCAR-3) | GI50 (SNB-19) | GI50 (SK-OV-3) | GI50 (NCI/ADR-RES) | GI50 (MCF7)
1 | CCOC(=N)CC(=O)NC(C)c1ccccc1 (centres undefined) | > 100 µM (inactive) | > 100 µM (inactive) | > 100 µM (inactive) | > 100 µM (inactive) | > 100 µM (inactive) | > 100 µM (inactive) | > 100 µM (inactive) | > 100 µM (inactive) | > 100 | > 100 µM (inactive) | > 100 µM (inactive) | > 100 µM (inactive) | > 100 µM (inactive) | > 100 µM (inactive) | > 100 µM (inactive) | > 100 µM (inactive) | > 100 µM (inactive) | > 100 µM (inactive) | – | –
2 | CCOC(=O)c1ccc(-c2cc(C)[nH]n2)[nH]1 | > 100 µM (inactive) | 54.1 µM (inactive) | – | > 100 µM (inactive) | > 100 µM (inactive) | > 100 µM (inactive) | > 100 µM (inactive) | > 100 µM (inactive) | > 100 | > 100 µM (inactive) | > 100 µM (inactive) | > 100 µM (inactive) | > 100 µM (inactive) | > 100 µM (inactive) | – | > 100 µM (inactive) | > 100 µM (inactive) | > 100 µM (inactive) | > 100 µM (inactive) | –
3 | O=C(OCC1OC2OC(c3ccccc3)(n3ccc4c([N+](=O)[O-])ccnc43)OC2C1OC(=O)c1ccccc1)c1ccccc1 (centres undefined) | > 100 µM (inactive) | > 100 µM (inactive) | > 100 µM (inactive) | > 100 µM (inactive) | > 100 µM (inactive) | > 100 µM (inactive) | > 100 µM (inactive) | – | > 100 | > 100 µM (inactive) | – | > 100 µM (inactive) | > 100 µM (inactive) | > 100 µM (inactive) | > 100 µM (inactive) | > 100 µM (inactive) | > 100 µM (inactive) | > 100 µM (inactive) | > 100 µM (inactive) | > 100 µM (inactive)
4 | COC(=O)c1c(O)ccc2c1c1cc3ccccc3c(O)c1n2Cc1ccccc1Cl | 34.9 µM (inactive) | 25.8 µM (inactive) | 16.6 µM (inactive) | 17.7 µM (inactive) | 26.1 µM (inactive) | 47.5 µM (inactive) | 19.1 µM (inactive) | – | 19.2 | 13.2 µM (inactive) | 19.3 µM (inactive) | 18.2 µM (inactive) | 31.4 µM (inactive) | 37.2 µM (inactive) | 31.5 µM (inactive) | 15.7 µM (inactive) | 59.4 µM (inactive) | 12.9 µM (inactive) | 21.8 µM (inactive) | 30.3 µM (inactive)
5 | Nc1c2ccccc2nc2c(C(=O)Nc3ccc(S(N)(=O)=O)cc3)cccc12 | > 100 µM (inactive) | > 100 µM (inactive) | 11.1 µM (inactive) | > 100 µM (inactive) | > 100 µM (inactive) | > 100 µM (inactive) | 86.3 µM (inactive) | 61.8 µM (inactive) | > 100 | 67.5 µM (inactive) | 42.3 µM (inactive) | > 100 µM (inactive) | 49 µM (inactive) | > 100 µM (inactive) | 28.6 µM (inactive) | 33.7 µM (inactive) | 92.3 µM (inactive) | > 100 µM (inactive) | – | –
6 | COc1ccccc1NC(=O)CC(=O)N1N=C(c2ccccc2)C(/N=N/c2ccc(Cl)cc2)C1=O (centres undefined) | > 100 µM (inactive) | 37.2 µM (inactive) | 41.1 µM (inactive) | 69.7 µM (inactive) | 23.4 µM (inactive) | 65 µM (inactive) | 14.6 µM (inactive) | 19.7 µM (inactive) | 58.6 | 30.1 µM (inactive) | 50.2 µM (inactive) | 34.8 µM (inactive) | 30.9 µM (inactive) | 27.7 µM (inactive) | 29 µM (inactive) | 28.4 µM (inactive) | 36 µM (inactive) | 21.9 µM (inactive) | – | –
7 | COc1cccc2nc3c(C(=O)NCCN(C)C)cccc3nc12 | 15.9 µM (inactive) | 12.6 µM (inactive) | 3.61 µM (inactive) | 8.73 µM (inactive) | 11.4 µM (inactive) | 6.03 µM (inactive) | 11.8 µM (inactive) | 12.4 µM (inactive) | 7 | 3.79 µM (inactive) | 0.713 µM (active) | 3.78 µM (inactive) | 12.6 µM (inactive) | 11 µM (inactive) | 3.76 µM (inactive) | 18.1 µM (inactive) | 17.4 µM (inactive) | 25.1 µM (inactive) | – | –
8 | O=C1/C(=C/c2ccc(Cl)cc2)N=C(c2ccccc2)N1C1Nc2cc3c(cc2S1)NC(N1C(=O)/C(=C/c2ccc(Cl)cc2)N=C1c1ccccc1)S3 (centres undefined) | > 100 µM (inactive) | > 100 µM (inactive) | 4.14 µM (inactive) | 88.9 µM (inactive) | 90.2 µM (inactive) | > 100 µM (inactive) | 34.2 µM (inactive) | – | 49 | 35.9 µM (inactive) | 27 µM (inactive) | 30.4 µM (inactive) | 32.3 µM (inactive) | > 100 µM (inactive) | 21.2 µM (inactive) | 49.8 µM (inactive) | – | > 100 µM (inactive) | 63.8 µM (inactive) | 42.2 µM (inactive)
9 | Nc1c(Br)cc(-c2cc(Br)c(N)c(Br)c2)cc1Br | > 100 µM (inactive) | > 100 µM (inactive) | > 100 µM (inactive) | – | 66.1 µM (inactive) | > 100 µM (inactive) | > 100 µM (inactive) | 59 µM (inactive) | – | > 100 µM (inactive) | > 100 µM (inactive) | > 100 µM (inactive) | – | > 100 µM (inactive) | > 100 µM (inactive) | > 100 µM (inactive) | > 100 µM (inactive) | > 100 µM (inactive) | > 100 µM (inactive) | > 100 µM (inactive)
10 | [N-]=[N+]=C1C(=O)C2CC3CC1CC2C3 (centres undefined) | > 100 µM (inactive) | > 100 µM (inactive) | > 100 µM (inactive) | > 100 µM (inactive) | > 100 µM (inactive) | > 100 µM (inactive) | > 100 µM (inactive) | > 100 µM (inactive) | > 100 | > 100 µM (inactive) | > 100 µM (inactive) | > 100 µM (inactive) | > 100 µM (inactive) | > 100 µM (inactive) | > 100 µM (inactive) | > 100 µM (inactive) | > 100 µM (inactive) | > 100 µM (inactive) | – | –
11 | O[C@H]1[C@H](O)[C@@H](O)[C@@]2(O)C[C@@H](O)[C@@H]1N2 | > 10 µM (inactive) | > 100 µM (inactive) | > 100 µM (inactive) | – | > 100 µM (inactive) | > 100 µM (inactive) | > 100 µM (inactive) | > 100 µM (inactive) | > 100 | > 100 µM (inactive) | > 100 µM (inactive) | > 100 µM (inactive) | > 100 µM (inactive) | > 100 µM (inactive) | > 100 µM (inactive) | > 100 µM (inactive) | > 100 µM (inactive) | > 100 µM (inactive) | > 100 µM (inactive) | > 100 µM (inactive)
12 | CCOP(C)(=O)C(N)Cc1ccc(OC)c(OC)c1 (centres undefined) | – | > 100 µM (inactive) | > 100 µM (inactive) | – | > 100 µM (inactive) | – | > 100 µM (inactive) | > 100 µM (inactive) | > 100 | > 100 µM (inactive) | > 100 µM (inactive) | > 100 µM (inactive) | > 100 µM (inactive) | > 100 µM (inactive) | > 100 µM (inactive) | > 100 µM (inactive) | > 100 µM (inactive) | > 100 µM (inactive) | > 100 µM (inactive) | > 100 µM (inactive)
13 | Cc1cccc(-c2nnc3s/c(=C\c4ccc5c(c4)OCO5)c(=O)n23)c1 | > 100 µM (inactive) | > 100 µM (inactive) | > 100 µM (inactive) | > 100 µM (inactive) | > 100 µM (inactive) | 29.8 µM (inactive) | > 100 µM (inactive) | 26.9 µM (inactive) | > 100 | > 100 µM (inactive) | > 100 µM (inactive) | > 100 µM (inactive) | > 100 µM (inactive) | > 100 µM (inactive) | > 100 µM (inactive) | > 100 µM (inactive) | > 100 µM (inactive) | > 100 µM (inactive) | – | –
14 | CC1=C(C(=O)Nc2ccccc2C)C(c2ccccc2)C(C(=O)Nc2ccccc2C)=C(C)N1 | > 100 µM (inactive) | 27.7 µM (inactive) | 9.95 µM (inactive) | 26.6 µM (inactive) | 40.6 µM (inactive) | 37.8 µM (inactive) | 29.2 µM (inactive) | 35.6 µM (inactive) | 40.6 | 24.3 µM (inactive) | > 100 µM (inactive) | 33.6 µM (inactive) | 37.2 µM (inactive) | 98.6 µM (inactive) | 22.6 µM (inactive) | 31.8 µM (inactive) | 45.8 µM (inactive) | > 100 µM (inactive) | – | –
15 | O=c1n(CCO)nc2n1CCCN2 | > 100 µM (inactive) | > 100 µM (inactive) | > 100 µM (inactive) | > 100 µM (inactive) | > 100 µM (inactive) | – | > 100 µM (inactive) | > 100 µM (inactive) | > 100 | > 100 µM (inactive) | > 100 µM (inactive) | > 100 µM (inactive) | > 100 µM (inactive) | > 100 µM (inactive) | > 100 µM (inactive) | > 100 µM (inactive) | > 100 µM (inactive) | > 100 µM (inactive) | – | > 100 µM (inactive)
